In the supplement of paper PMC11208160:

Assay: recombinant barcode read abundance after kanamycin selection (control-corrected) (log10(CPM+1)); higher = more efficient recombination; sequences stand for … in AGTGCAGAGAAAATCGGCCAGTTTTCTCTGCCTGCAGTCCGCATGCCGT…AGATTTATGCAGCGGACTGCCTTTCTCCCAAAGTGATAAACCGGACAGTATCATGGACCGGTTTTCCCGGTAATCCGTATTTGCAAGGTTGGTTTCACT; site = the 11-nt target
Outline: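 Duplicate cultures were plated either on chloramphenicol/ampicillin LB agar, serving as control, or on chloramphenicol/ampicillin/kanamycin with 0.1 mM IPTG. These came from a pooled E. coli library co-electroporated with a donor plasmid, each member pairing a target with an IS621 bridge RNA target-binding loop. Recombination efficiency equals averaged, control-corrected counts per million of recombinant-junction barcodes. It is listed as log10(CPM+1).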
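Further: IS621 recombinase and bridge RNA in Escherichia coli cells.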

Q: For “TATTATACTTGGGTTCTAACCTGTTGCAT (site TATTATACTAA)”, which “recombinant barcode read abundance (log10)” value is on record?
A: 0.0319

Q: For “TATTATACTTGGGTTCTAACCTGTTGCAT (site TATTATACTAC)”, which “recombinant barcode read abundance (log10)” value is on record?
A: 0.0379

Q: With “TATTATACTTGGGTTCTAACCTGTTGCAT (site TATTATACTAG)” as the sequence, how does the “recombinant barcode read abundance (log10)” value read?
A: 0.0602

Q: With “TATTATACTTGGGTTCTAACCTGTTGCAT (site TATTATACTAT)” as the sequence, how does the “recombinant barcode read abundance (log10)” value read?
A: 0.167

Q: For “TATTATACTTGGGTTCTAACCTGTTGCGT (site TATTATACTAA)”, which “recombinant barcode read abundance (log10)” value is on record?
A: 0.116

Q: With “TATTATACTTGGGTTCTAACCTGTTGCGT (site TATTATACTAC)” as the sequence, how does the “recombinant barcode read abundance (log10)” value read?
A: 0.335

Q: With “TATTATACTTGGGTTCTAACCTGTTGCGT (site TATTATACTAG)” as the sequence, how does the “recombinant barcode read abundance (log10)” value read?
A: 0.0727

Q: Which “recombinant barcode read abundance (log10)” value does the source give for “TATTATACTTGGGTTCTAACCTGTTGCGT (site TATTATACTAT)” here?
A: 0.16

Q: Which “recombinant barcode read abundance (log10)” value does the source give for “TATTATACTTGGGTTCTAACCTGTTGCTT (site TATTATACTAA)” here?
A: 0.0915

Q: Which “recombinant barcode read abundance (log10)” value does the source give for “TATTATACTTGGGTTCTAACCTGTTGCTT (site TATTATACTAC)” here?
A: 0.116

Q: With “TATTATACTTGGGTTCTAACCTGTTGCTT (site TATTATACTAG)” as the sequence, how does the “recombinant barcode read abundance (log10)” value read?
A: 0.245

Q: With “TATTATACTTGGGTTCTAACCTGTTGCTT (site TATTATACTAT)” as the sequence, how does the “recombinant barcode read abundance (log10)” value read?
A: 0.34

Q: With “TATTCTACTTGGGTTCTAACCTGTTGCGC (site TATTCTACTAC)” as the sequence, how does the “recombinant barcode read abundance (log10)” value read?
A: 0.0305

Q: Which “recombinant barcode read abundance (log10)” value does the source give for “TATTCTACTTGGGTTCTAACCTGTTGCGC (site TATTCTACTCC)” here?
A: 0.0687

Q: For “TATTCTACTTGGGTTCTAACCTGTTGCGC (site TATTCTACTGC)”, which “recombinant barcode read abundance (log10)” value is on record?
A: 0.0329

Q: Which “recombinant barcode read abundance (log10)” value does the source give for “TATTCTACTTGGGTTCTAACCTGTTGCGC (site TATTCTACTTC)” here?
A: 0.0215

Q: For “TATTGATCTTGGGTTCTAACCTGTTGCCT (site TAATGATCTAG)”, which “recombinant barcode read abundance (log10)” value is on record?
A: 0.347

Q: Which “recombinant barcode read abundance (log10)” value does the source give for “TATTGATCTTGGGTTCTAACCTGTTGCCT (site TACTGATCTAG)” here?
A: 0.162

Q: Which “recombinant barcode read abundance (log10)” value does the source give for “TATTGATCTTGGGTTCTAACCTGTTGCCT (site TAGTGATCTAG)” here?
A: 0.0784

Q: For “TATTGATCTTGGGTTCTAACCTGTTGCCT (site TATTGATCTAG)”, which “recombinant barcode read abundance (log10)” value is on record?
A: 0.235

Q: With “TATTGCCCTTGGGTTCTAACCTGTTGCCT (site TAATGCCCTAG)” as the sequence, how does the “recombinant barcode read abundance (log10)” value read?
A: 0.203

Q: For “TATTGCCCTTGGGTTCTAACCTGTTGCCT (site TATTGCCCTAG)”, which “recombinant barcode read abundance (log10)” value is on record?
A: 0.117

Q: For “TCAAACCCTTGGGTTCTAACCTGTTGCGG (site TCAAACCCTCC)”, which “recombinant barcode read abundance (log10)” value is on record?
A: 1.6

Q: With “TCAAACCCTTGGGTTCTAACCTGTTGCGG (site TCCAACCCTCC)” as the sequence, how does the “recombinant barcode read abundance (log10)” value read?
A: 0.292

Q: Which “recombinant barcode read abundance (log10)” value does the source give for “TCAAACCCTTGGGTTCTAACCTGTTGCGG (site TCGAACCCTCC)” here?
A: 0.0489

Q: Which “recombinant barcode read abundance (log10)” value does the source give for “TCAAACCCTTGGGTTCTAACCTGTTGCGG (site TCTAACCCTCC)” here?
A: 0.279

Q: With “TCAAGACCTTGGGTTCTAACCTGTTGCCG (site TCAAGACCTAG)” as the sequence, how does the “recombinant barcode read abundance (log10)” value read?
A: 0.179

Q: With “TCAAGACCTTGGGTTCTAACCTGTTGCCG (site TCAAGACCTCG)” as the sequence, how does the “recombinant barcode read abundance (log10)” value read?
A: 0.461

Q: With “TCACAGGCTTGGGTTCTAACCTGTTGCCG (site TCACAGGCTCG)” as the sequence, how does the “recombinant barcode read abundance (log10)” value read?
A: 0.361

Q: Which “recombinant barcode read abundance (log10)” value does the source give for “TCACAGGCTTGGGTTCTAACCTGTTGCCG (site TCTCAGGCTCG)” here?
A: 0.377

Q: With “TCACGGACTTGGGTTCTAACCTGTTGCCT (site TCACGGACTAG)” as the sequence, how does the “recombinant barcode read abundance (log10)” value read?
A: 1.1

Q: Which “recombinant barcode read abundance (log10)” value does the source give for “TCACGGACTTGGGTTCTAACCTGTTGCCT (site TCCCGGACTAG)” here?
A: 0.101

Q: For “TCACGGACTTGGGTTCTAACCTGTTGCCT (site TCGCGGACTAG)”, which “recombinant barcode read abundance (log10)” value is on record?
A: 0.0352

Q: Which “recombinant barcode read abundance (log10)” value does the source give for “TCACGGACTTGGGTTCTAACCTGTTGCCT (site TCTCGGACTAG)” here?
A: 0.101

Q: Which “recombinant barcode read abundance (log10)” value does the source give for “TCACGTCCTTGGGTTCTAACCTGTTGCGT (site TCACGTCCTAA)” here?
A: 0.0145

Q: With “TCACGTCCTTGGGTTCTAACCTGTTGCGT (site TCACGTCCTAC)” as the sequence, how does the “recombinant barcode read abundance (log10)” value read?
A: 1.3

Q: With “TCACGTCCTTGGGTTCTAACCTGTTGCGT (site TCACGTCCTAG)” as the sequence, how does the “recombinant barcode read abundance (log10)” value read?
A: 0.0596

Q: Which “recombinant barcode read abundance (log10)” value does the source give for “TCACGTCCTTGGGTTCTAACCTGTTGCGT (site TCACGTCCTAT)” here?
A: 0.295

Q: For “TCACGTCCTTGGGTTCTAACCTGTTGCTT (site TCACGTCCTAA)”, which “recombinant barcode read abundance (log10)” value is on record?
A: 0.137

Q: For “TCACGTCCTTGGGTTCTAACCTGTTGCTT (site TCACGTCCTAC)”, which “recombinant barcode read abundance (log10)” value is on record?
A: 0.0167

Q: For “TCACGTCCTTGGGTTCTAACCTGTTGCTT (site TCACGTCCTAG)”, which “recombinant barcode read abundance (log10)” value is on record?
A: 0.262

Q: Which “recombinant barcode read abundance (log10)” value does the source give for “TCACGTCCTTGGGTTCTAACCTGTTGCTT (site TCACGTCCTAT)” here?
A: 0.145

Q: With “TCAGAATCTTGGGTTCTAACCTGTTGCCT (site TCAGAATCTAG)” as the sequence, how does the “recombinant barcode read abundance (log10)” value read?
A: 0.667

Q: For “TCAGAATCTTGGGTTCTAACCTGTTGCCT (site TCAGCATCTAG)”, which “recombinant barcode read abundance (log10)” value is on record?
A: 0

Q: For “TCAGAATCTTGGGTTCTAACCTGTTGCCT (site TCAGGATCTAG)”, which “recombinant barcode read abundance (log10)” value is on record?
A: 0.371

Q: With “TCAGAATCTTGGGTTCTAACCTGTTGCCT (site TCAGTATCTAG)” as the sequence, how does the “recombinant barcode read abundance (log10)” value read?
A: 0.0618

Q: For “TCAGGGACTTGGGTTCTAACCTGTTGCAG (site TCAGGGACTCT)”, which “recombinant barcode read abundance (log10)” value is on record?
A: 2.45

Q: With “TCAGGGACTTGGGTTCTAACCTGTTGCAG (site TCGGGGACTCG)” as the sequence, how does the “recombinant barcode read abundance (log10)” value read?
A: 0.375

Q: For “TCAGGTACTTGGGTTCTAACCTGTTGCCT (site ACAGGTACTAG)”, which “recombinant barcode read abundance (log10)” value is on record?
A: 0.0983

Q: For “TCAGGTACTTGGGTTCTAACCTGTTGCCT (site CCAGGTACTAG)”, which “recombinant barcode read abundance (log10)” value is on record?
A: 0.0713

Q: Which “recombinant barcode read abundance (log10)” value does the source give for “TCAGGTACTTGGGTTCTAACCTGTTGCCT (site GCAGGTACTAG)” here?
A: 0.0652

Q: For “TCAGGTACTTGGGTTCTAACCTGTTGCCT (site TCAGGTACTAG)”, which “recombinant barcode read abundance (log10)” value is on record?
A: 0.163

Q: Which “recombinant barcode read abundance (log10)” value does the source give for “TCAGTATCTTGGGTTCTAACCTGTTGCCT (site TCAGAATCTAG)” here?
A: 0.145

Q: Which “recombinant barcode read abundance (log10)” value does the source give for “TCAGTATCTTGGGTTCTAACCTGTTGCCT (site TCAGCATCTAG)” here?
A: 0.533

Q: With “TCAGTATCTTGGGTTCTAACCTGTTGCCT (site TCAGGATCTAG)” as the sequence, how does the “recombinant barcode read abundance (log10)” value read?
A: 0.107

Q: Which “recombinant barcode read abundance (log10)” value does the source give for “TCAGTATCTTGGGTTCTAACCTGTTGCCT (site TCAGTATCTAG)” here?
A: 1.4

Q: With “TCATCTCCTTGGGTTCTAACCTGTTGCCT (site ACATCTCCTAG)” as the sequence, how does the “recombinant barcode read abundance (log10)” value read?
A: 0.188

Q: Which “recombinant barcode read abundance (log10)” value does the source give for “TCATCTCCTTGGGTTCTAACCTGTTGCCT (site CCATCTCCTAG)” here?
A: 0.0972

Q: For “TCATCTCCTTGGGTTCTAACCTGTTGCCT (site GCATCTCCTAG)”, which “recombinant barcode read abundance (log10)” value is on record?
A: 0.0477

Q: With “TCATCTCCTTGGGTTCTAACCTGTTGCCT (site TCATCTCCTAG)” as the sequence, how does the “recombinant barcode read abundance (log10)” value read?
A: 0.092

Q: Which “recombinant barcode read abundance (log10)” value does the source give for “TCATGGGCTTGGGTTCTAACCTGTTGCAG (site AGGGTTCCTAA)” here?
A: 0.457

Q: For “TCATGGGCTTGGGTTCTAACCTGTTGCAG (site TCATGGGCTCT)”, which “recombinant barcode read abundance (log10)” value is on record?
A: 1.92

Q: For “TCCAAAGCTTGGGTTCTAACCTGTTGCTA (site TCCAAAGCTTA)”, which “recombinant barcode read abundance (log10)” value is on record?
A: 0.249

Q: For “TCCAAAGCTTGGGTTCTAACCTGTTGCTA (site TCCCAAGCTTA)”, which “recombinant barcode read abundance (log10)” value is on record?
A: 0.141

Q: With “TCCAAAGCTTGGGTTCTAACCTGTTGCTA (site TCCGAAGCTTA)” as the sequence, how does the “recombinant barcode read abundance (log10)” value read?
A: 0.294

Q: For “TCCAAAGCTTGGGTTCTAACCTGTTGCTA (site TCCTAAGCTTA)”, which “recombinant barcode read abundance (log10)” value is on record?
A: 0.251

Q: For “TCCAACACTTGGGTTCTAACCTGTTGCGG (site TCCAAACCTCC)”, which “recombinant barcode read abundance (log10)” value is on record?
A: 0.00935

Q: For “TCCAACACTTGGGTTCTAACCTGTTGCGG (site TCCAACACTCC)”, which “recombinant barcode read abundance (log10)” value is on record?
A: 1.31

Q: For “TCCAACCCTTGGGTTCTAACCTGTTGCGG (site TCAAACCCTCC)”, which “recombinant barcode read abundance (log10)” value is on record?
A: 0.0107

Q: Which “recombinant barcode read abundance (log10)” value does the source give for “TCCAACCCTTGGGTTCTAACCTGTTGCGG (site TCCAACCCTCC)” here?
A: 1.78

Q: Which “recombinant barcode read abundance (log10)” value does the source give for “TCCAACCCTTGGGTTCTAACCTGTTGCGG (site TCGAACCCTCC)” here?
A: 0.108

Q: Which “recombinant barcode read abundance (log10)” value does the source give for “TCCAACCCTTGGGTTCTAACCTGTTGCGG (site TCTAACCCTCC)” here?
A: 0.3

Q: With “TCCAAGACTTGGGTTCTAACCTGTTGCAG (site ACCAAGACTCG)” as the sequence, how does the “recombinant barcode read abundance (log10)” value read?
A: 0.00865

Q: For “TCCAAGACTTGGGTTCTAACCTGTTGCAG (site TCCAAGACTCT)”, which “recombinant barcode read abundance (log10)” value is on record?
A: 1.72

Q: With “TCCAAGCCTTGGGTTCTAACCTGTTGCAG (site TCCAAACCTCT)” as the sequence, how does the “recombinant barcode read abundance (log10)” value read?
A: 0.694

Q: For “TCCAAGCCTTGGGTTCTAACCTGTTGCAG (site TCCAACCCTCT)”, which “recombinant barcode read abundance (log10)” value is on record?
A: 0.0251

Q: With “TCCAAGCCTTGGGTTCTAACCTGTTGCAG (site TCCAAGCCTCT)” as the sequence, how does the “recombinant barcode read abundance (log10)” value read?
A: 0.747
